Values of other authors as cited in patent publication US9550991B2, “Transcription factor decoys” (PROCARTA […]., priority 2010, dated 2017).
Entries after “also recorded” stand apart in the source; their conditions may differ.

Columns and labels:
[1] = physiological buffers, biological fluids, salt, dilution, storage

SMILES: Nc1c2c([n+](CCCCCCCCCC[n+]3c4c(c(N)c5ccccc53)CCCC4)c3ccccc13)CCCC2.[Cl-].[Cl-] [Compound 7, 10,10′-(decane-1,10-diyl)bis(9-amino-1,2,3,4-tetrahydroacridinium) dichloride]
- in vitro toxicity compared to dequalinium: lower toxicity in vitro compared to dequalinium; also recorded: less in vitro toxicity than dequalinium
- stability of complexes formed with DNA [1]: forms more stable complexes

SMILES: Cc1cc(N)c2ccccc2[n+]1CCCCCCCCCC[n+]1c(C)cc(N)c2ccccc21 [dequalinium]
- stability of complexes formed with DNA [1]: unstable over time
